Results published in the supplement of paper PMC10307832.

What was measured:
Test in all cases: relative viability (nuclei count vs DMSO), 5 days (fraction); higher = more cells survive
Serdemetan + Foretinib = compound: c1ccc2c(CCNc3ccc(Nc4ccncc4)cc3)c[nH]c2c1 [Serdemetan] + COc1cc2c(Oc3ccc(NC(=O)C4(C(=O)Nc5ccc(F)cc5)CC4)cc3F)ccnc2cc1OCCCN1CCOCC1 [Foretinib] (partner 0.25 µM)
How it was run: (§1)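 Lung cancer cell lines were pin-tool dosed in 1536-well plates on the day after seeding, with either a lone drug or a fixed anchor-drug dose plus five library-drug doses (not always all listed) in √10 steps. Nuclei were counted on 4× images after 5 days. Relative viability is the ratio of treated-well to vehicle-well nuclei counts, with each value a median of duplicate plates.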

Serdemetan + Phenformin = compound: c1ccc2c(CCNc3ccc(Nc4ccncc4)cc3)c[nH]c2c1 [Serdemetan] + N=C(N)NC(=N)NCCc1ccccc1 [Phenformin] (partner 250 µM)
How it was run: as §1

Selisistat + Dasatinib = compound: C1CC(C2=C(C1)C3=C(N2)C=CC(=C3)Cl)C(=O)N [Selisistat] + Cc1nc(Nc2ncc(C(=O)Nc3c(C)cccc3Cl)s2)cc(N2CCN(CCO)CC2)n1 [Dasatinib] (partner 0.075 µM)
How it was run: as §1

Selisistat + Alpelisib = compound: C1CC(C2=C(C1)C3=C(N2)C=CC(=C3)Cl)C(=O)N [Selisistat] + Cc1nc(NC(=O)N2CCC[C@H]2C(N)=O)sc1-c1ccnc(C(C)(C)C(F)(F)F)c1 [Alpelisib] (partner 2 µM)
How it was run: as §1

| Cell Line | relative viability (Serdemetan + Foretinib; first compound 0.04 µM) | relative viability (Serdemetan + Foretinib; first compound 0.1265 µM) | relative viability (Serdemetan + Foretinib; first compound 0.4 µM) | relative viability (Serdemetan + Foretinib; first compound 1.265 µM) | relative viability (Serdemetan + Foretinib; first compound 4 µM) | relative viability (Serdemetan + Phenformin; first compound 0.04 µM) | relative viability (Serdemetan + Phenformin; first compound 0.1265 µM) | relative viability (Serdemetan + Phenformin; first compound 0.4 µM) | relative viability (Serdemetan + Phenformin; first compound 1.265 µM) | relative viability (Serdemetan + Phenformin; first compound 4 µM) | relative viability (Selisistat + Dasatinib; first compound 0.4 µM) | relative viability (Selisistat + Dasatinib; first compound 1.265 µM) | relative viability (Selisistat + Dasatinib; first compound 12.65 µM) | relative viability (Selisistat + Dasatinib; first compound 40 µM) | relative viability (Selisistat + Alpelisib; first compound 0.4 µM) | relative viability (Selisistat + Alpelisib; first compound 1.265 µM) | relative viability (Selisistat + Alpelisib; first compound 40 µM) | relative viability (Selisistat + Dasatinib; first compound 4 µM) | relative viability (Selisistat + Alpelisib; first compound 4 µM) | relative viability (Selisistat + Alpelisib; first compound 12.65 µM) |
| --- | --- | --- | --- | --- | --- | --- | --- | --- | --- | --- | --- | --- | --- | --- | --- | --- | --- | --- | --- | --- |
| NCI-H727 | 0.831 | 0.737 | 1.32 | 0.634 | 0.437 | 0.592 | 0.558 | 0.642 | 0.288 | 0.418 | 0.468 | 0.419 | 0.454 | 0.498 | 0.553 | 0.714 | 0.458 | – | – | – |
| NCI-H838 | 1.03 | 0.983 | 1.02 | 0.951 | 1.09 | 0.564 | 0.551 | 0.544 | 0.427 | 0.641 | 0.273 | 0.293 | 0.279 | 0.285 | 1.11 | 0.971 | 0.954 | 0.263 | 0.912 | 1.1 |
| NCI-H1355 | 0.963 | 0.955 | 0.798 | 0.907 | 0.66 | 0.447 | 0.444 | 0.466 | 0.332 | 0.432 | 0.684 | 0.688 | 0.65 | 0.789 | 0.936 | 0.874 | 1.05 | 0.519 | – | 0.862 |
| NCI-H1395 | 1 | 0.969 | 0.926 | 0.883 | 0.571 | 0.448 | 0.448 | 0.471 | 0.388 | 0.332 | 0.468 | 0.426 | 0.402 | 0.389 | 1.07 | 1.01 | 0.996 | 0.407 | 0.977 | 0.864 |
| NCI-H1437 | 1.31 | 1.19 | 1.27 | 1.08 | 0.963 | 0.314 | 0.32 | 0.315 | 0.298 | 0.37 | 0.399 | 0.349 | 0.331 | 0.514 | 1.03 | 0.987 | 0.919 | – | 0.787 | 0.981 |
| NCI-H1563 | 0.82 | 0.897 | 0.745 | 0.69 | 0.64 | 0.689 | 0.591 | 0.567 | 0.586 | 0.589 | 0.496 | 0.443 | 0.438 | 0.549 | 0.834 | 0.889 | 0.773 | 0.319 | 0.853 | 0.778 |
| NCI-H1651 | 0.724 | 0.515 | 0.407 | 0.465 | 0.235 | 0.283 | 0.319 | 0.224 | 0.205 | 0.213 | 0.434 | 0.378 | 0.348 | 0.34 | 0.945 | 0.905 | 1.01 | 0.359 | 0.944 | 0.894 |
| NCI-H1666 | 0.967 | 0.909 | 0.937 | 0.591 | 0.742 | 0.55 | 0.557 | 0.535 | 0.529 | 0.412 | 0.799 | 0.763 | 0.594 | 0.525 | 1.06 | 0.978 | 0.748 | 0.734 | 0.946 | 0.847 |
